Test results published in US20120053115A1, “Lantibiotic Carboxyamide Derivatives With Enhanced Antibacterial Activity” (Sentinella Pharmaceuticals, Inc., priority 2008, published 2012).

Key:
[1] = test system: E. faecalisVanS (code 559); conditions: E. faecalis VanS code 559; 0.02% albumine bovine serum; read after 24 h
Method: (§1) MICs were performed using the broth microdilution methodology following the NCCLS procedure (NCCLS Document M7-A4 Vol. 17 No. 2 January 1997) in presence of 0.02% albumine bovine serum with inocula of approximately 5×10^5 cfu/mL. The media employed included cation-adjusted Mueller-Hinton (MH) broth (Difco Laboratories, Detroit, Mich., USA) supplemented or not with 30% (v/v) bovine serum. Tests were read after 24 h incubation at 25-37° C.

[2] = test system: Staphylococcus aureus VISA (code 3798); conditions: S. aureus VISA code 3798; 0.02% albumine bovine serum; read after 24 h
Method: as §1

[3] = test system: C. albicans ATCC 90028 (code 145); conditions: 0.02% albumine bovine serum, read after 24 h
Method: as §1

[4] = test system: E. faecium VanA (code 569); conditions: 0.02% albumine bovine serum, read after 24 h
Method: as §1

[5] = test system: Staphylococcus aureus VISA Met-R (code 3797); conditions: S. aureus VISA Met-R code 3797; 0.02% albumine bovine serum; read after 24 h
Method: as §1

[6] = test system: S. epidermidis ATCC12228 (code 147); conditions: 0.02% albumine bovine serum, read after 24 h
Method: as §1

[7] = test system: Enterococcus faecium VanS (code 568); conditions: E. faecium VanS code 568; 0.02% albumine bovine serum; read after 24 h
Method: as §1

[8] = test system: S. haemolyticus Met-R (code 1729); conditions: 0.02% albumine bovine serum, read after 24 h
Method: as §1

[9] = test system: S. haemolyticus Met-S (code 1730); conditions: 0.02% albumine bovine serum, read after 24 h
Method: as §1

S. pyogenes (code 49) = conditions: 0.02% albumine bovine serum, read after 24 h
Method: as §1

[10] = test system: E. faecalisVanA (code 560); conditions: E. faecalis VanA code 560; 0.02% albumine bovine serum; read after 24 h
Method: as §1

[11] = test system: Escherichia coli (code 47); conditions: 0.02% albumine bovine serum, read after 24 h
Method: as §1

Structure (SMILES) | Minimal Inhibitory Concentrations [1] [µg/mL] | Minimal Inhibitory Concentrations [2] [µg/mL] | Minimal Inhibitory Concentrations [3] [µg/mL] | Minimal Inhibitory Concentrations [4] [µg/mL] | Minimal Inhibitory Concentrations [5] [µg/mL] | Minimal Inhibitory Concentrations [6] [µg/mL] | Minimal Inhibitory Concentrations [7] [µg/mL] | Minimal Inhibitory Concentrations [8] [µg/mL] | Minimal Inhibitory Concentrations [9] [µg/mL] | Minimal Inhibitory Concentrations (S. pyogenes (code 49)) [µg/mL] | Minimal Inhibitory Concentrations [10] [µg/mL] | Minimal Inhibitory Concentrations [11] [µg/mL]
C=C1NC(=O)[C@H](C(C)C)NC(=O)[C@H](NC(=O)/C(=C/C)NC(=O)[C@@H](N)[C@@H](C)CC)CSC[C@@H](C(=O)N[C@H]2C(=O)N3CCC[C@H]3C(=O)NCC(=O)N[C@H](C(=O)N[C@H](C(=O)N[C@@H]3CSC[C@@H]4NC(=O)CNC(=O)[C@@H](CSC[C@@H]5NC(=O)[C@H](Cc6c[nH]cn6)NC(=O)[C@@H](CSC[C@@H](C(=O)NCCCN(C)C)NC5=O)NC4=O)NC(=O)CNC(=O)CNC(=O)CNC(=O)[C@H](CCC(=O)NCCCN(C)C)NC3=O)[C@@H](C)O)CS[C@H]2C)NC(=O)[C@H](Cc2c[nH]c3ccccc23)NC1=O [Compound 3] | 4 | 0.50 | 64 | 1 | 1 | 2 | 2 | 1 | <0.125 | 2 | 4 | >128
C=C1NC(=O)[C@H](C(C)C)NC(=O)[C@H](NC(=O)/C(=C/C)NC(=O)[C@@H](N)[C@@H](C)CC)CSC[C@@H](C(=O)N[C@H]2C(=O)N3CCC[C@H]3C(=O)NCC(=O)N[C@H](C(=O)N[C@H](C(=O)N[C@@H]3CSC[C@@H]4NC(=O)CNC(=O)[C@@H](CSC[C@@H]5NC(=O)[C@H](Cc6c[nH]cn6)NC(=O)[C@@H](CSC[C@@H](C(=O)NCCN(C)C)NC5=O)NC4=O)NC(=O)CNC(=O)CNC(=O)CNC(=O)[C@H](CCC(=O)NCCN(C)C)NC3=O)[C@@H](C)O)CS[C@H]2C)NC(=O)[C@H](Cc2c[nH]c3ccccc23)NC1=O [Compound 4] | 4 | 0.50 | 64 | 1 | 0.50 | 2 | 1 | 0.50 | <0.125 | 0.50 | 2 | >128
C=C1NC(=O)[C@H](C(C)C)NC(=O)[C@H](NC(=O)/C(=C/C)NC(=O)[C@@H](N)[C@@H](C)CC)CSC[C@@H](C(=O)N[C@H]2C(=O)N3CCC[C@H]3C(=O)NCC(=O)N[C@H](C(=O)N[C@H](C(=O)N[C@@H]3CSC[C@@H]4NC(=O)CNC(=O)[C@@H](CSC[C@@H]5NC(=O)[C@H](Cc6c[nH]cn6)NC(=O)[C@@H](CSC[C@@H](C(=O)Nc6cccc7ccccc67)NC5=O)NC4=O)NC(=O)CNC(=O)CNC(=O)CNC(=O)[C@H](CCC(=O)Nc4cccc5ccccc45)NC3=O)[C@@H](C)O)CS[C@H]2C)NC(=O)[C@H](Cc2c[nH]c3ccccc23)NC1=O [Compound 9] | 16 | 32 | 32 | 16 | 32 | 16 | 8 | 16 | 16 |  | 16 | >128
C=C1NC(=O)[C@H](C(C)C)NC(=O)[C@H](NC(=O)/C(=C/C)NC(=O)[C@@H](N)[C@@H](C)CC)CSC[C@@H](C(=O)N[C@H]2C(=O)N3CCC[C@H]3C(=O)NCC(=O)N[C@H](C(=O)N[C@H](C(=O)N[C@@H]3CSC[C@@H]4NC(=O)CNC(=O)[C@@H](CSC[C@@H]5NC(=O)[C@H](Cc6c[nH]cn6)NC(=O)[C@@H](CSC[C@@H](C(=O)NCCOC)NC5=O)NC4=O)NC(=O)CNC(=O)CNC(=O)CNC(=O)[C@H](CCC(=O)NCCOC)NC3=O)[C@@H](C)O)CS[C@H]2C)NC(=O)[C@H](Cc2c[nH]c3ccccc23)NC1=O [Compound 11] | 16 | 4 | 64 | 8 | 8 | 8 | 16 | 32 | 4 |  | 16 | >128
C=C1NC(=O)[C@H](C(C)C)NC(=O)[C@H](NC(=O)/C(=C/C)NC(=O)[C@@H](N)[C@@H](C)CC)CSC[C@@H](C(=O)N[C@H]2C(=O)N3CCC[C@H]3C(=O)NCC(=O)N[C@H](C(=O)N[C@H](C(=O)N[C@@H]3CSC[C@@H]4NC(=O)CNC(=O)[C@@H](CSC[C@@H]5NC(=O)[C@H](Cc6c[nH]cn6)NC(=O)[C@@H](CSC[C@@H](C(=O)NCCCCN(C)C)NC5=O)NC4=O)NC(=O)CNC(=O)CNC(=O)CNC(=O)[C@H](CCC(=O)NCCCCN(C)C)NC3=O)[C@@H](C)O)CS[C@H]2C)NC(=O)[C@H](Cc2c[nH]c3ccccc23)NC1=O [Compound 12] | 8 | 1 | 64 | 1 | 2 | 1 | 2 | 1 | <0.125 | 0.50 | 4 | >128
C=C1NC(=O)[C@H](C(C)C)NC(=O)[C@H](NC(=O)/C(=C/C)NC(=O)[C@@H](N)[C@@H](C)CC)CSC[C@@H](C(=O)N[C@H]2C(=O)N3CCC[C@H]3C(=O)NCC(=O)N[C@H](C(=O)N[C@H](C(=O)N[C@@H]3CSC[C@@H]4NC(=O)CNC(=O)[C@@H](CSC[C@@H]5NC(=O)[C@H](Cc6c[nH]cn6)NC(=O)[C@@H](CSC[C@@H](C(=O)O)NC5=O)NC4=O)NC(=O)CNC(=O)CNC(=O)CNC(=O)[C@H](CCC(=O)O)NC3=O)[C@@H](C)O)CS[C@H]2C)NC(=O)[C@H](Cc2c[nH]c3ccccc23)NC1=O [Compound 97518, reference compound] | 128 | >128 | 64 | >128 | >128 | 64 | >128 | 128 | 128 | 0.25 | 128 | >128
